Measurements published in patent US20250282799A1, “SUBSTITUTED PYRIDO[4,3-d]PYRIMIDINES AS KRAS MODULATORS” (Alterome Therapeutics, Inc., priority 2023, published 2025).

Test system: KRAS G12V dependent lung adenocarcinoma cell line, NCI-H441
Test: Cellular pERK (Thr202/Tyr204) FRET/HTRF assay
Assay type: cell-based
Conditions: Homo sapiens, NCI-H441, cellular pERK (Thr202/Tyr204) HTRF, NCI-H441 cells
Procedure, shortened: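 NCI-H441, overnight plating → cpd 1 hr, 37 °C/5% CO2; DMSO neg ctrl. Lyse (phosphatase inhibitors), add donor/acceptor Abs, RT incubation, HTRF read. IC50 by curve fit.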

`[2H]C([2H])(F)Oc1c(F)c(F)cc2cc(N)cc(-c3ncc4c(N5CCOC[C@H]6[C@H](F)[C@H]65)nc(OC[C@@]56CCCN5CC(=C)C6)nc4c3F)c12` [Example 144, 6,7-difluoro-4-(8-fluoro-4-((1S,7S,8S)-8-fluoro-5-oxa-2-azabicyclo[5.1.0]octan-2-yl)-2-(((S)-2-methylenetetrahydro-1H-pyrrolizin-7a(5H)-yl)methoxy)pyrido[4,3-d]pyrimidin-7-yl)-5-(fluoromethoxy-d2)naphthalen-2-amine] and `C#Cc1c(F)ccc2cc(N)cc(-c3ncc4c(N5CCOC[C@H]6[C@H](F)[C@H]65)nc(OC[C@@]56CCCN5CC(=C(F)F)C6)nc4c3F)c12` [Example 134, 4-(2-(((S)-2-(difluoromethylene)tetrahydro-1H-pyrrolizin-7a(5H)-yl)methoxy)-8-fluoro-4-((1S,7S,8S)-8-fluoro-5-oxa-2-azabicyclo[5.1.0]octan-2-yl)pyrido[4,3-d]pyrimidin-7-yl)-5-ethynyl-6-fluoronaphthalen-2-amine] cannot be ordered by IC50: under 50 nM for the first, under 50 nM for the second.

Compared with `[2H]C([2H])([2H])Oc1c(F)c(F)cc2cncc(-c3ncc4c(N5CCOC[C@H]6[C@H](F)[C@H]65)nc(OC([2H])([2H])[C@@]56CCCN5C[C@H](F)C6)nc4c3F)c12` [Example 136, (1S,7S,8S)-2-(7-(6,7-difluoro-5-(methoxy-d3)isoquinolin-4-yl)-8-fluoro-2-(((2R,7aS)-2-fluorotetrahydro-1H-pyrrolizin-7a(5H)-yl)methoxy-d2)pyrido[4,3-d]pyrimidin-4-yl)-8-fluoro-5-oxa-2-azabicyclo[5.1.0]octane], `[2H]C([2H])([2H])Oc1c(F)c(F)c(F)c2cc(N)cc(-c3ncc4c(N5CCOC([2H])([2H])[C@H]6[C@H](F)[C@H]65)nc(OC([2H])([2H])[C@@]56CCCN5C[C@H](F)C6)nc4c3F)c12` [Example 124, 6,7,8-trifluoro-4-(8-fluoro-4-((1S,7S,8S)-8-fluoro-5-oxa-2-azabicyclo[5.1.0]octan-2-yl-6,6-d2)-2-(((2R,7aS)-2-fluorotetrahydro-1H-pyrrolizin-7a(5H)-yl)methoxy-d2)pyrido[4,3-d]pyrimidin-7-yl)-5-(methoxy-d3)naphthalen-2-amine] is lower in IC50: 50 to 500 nM for the first, under 50 nM for the second. The second is the more potent here.

Compared with `[2H]C([2H])(Oc1nc(N2CCC(=O)C[C@@H]3[C@H](F)[C@@H]32)c2cnc(-c3cc(N)cc4cc(F)c(F)c(C#C)c34)c(F)c2n1)[C@@]12CCCN1C[C@H](F)C2` [Example 194, (1R,7S,8S)-2-(7-(3-amino-8-ethynyl-6,7-difluoronaphthalen-1-yl)-8-fluoro-2-(((2R,7aS)-2-fluorotetrahydro-1H-pyrrolizin-7a(5H)-yl)methoxy-d2)pyrido[4,3-d]pyrimidin-4-yl)-8-fluoro-2-azabicyclo[5.1.0]octan-5-one], `[2H]c1cc(F)c(C#C)c2c(-c3ncc4c(N5CCOC[C@H]6[C@H](F)[C@H]65)nc(OC([2H])([2H])[C@@]56CCCN5C[C@H](F)C6)nc4c3F)cc(N)cc12` [Example 264, 5-ethynyl-6-fluoro-4-(8-fluoro-4-((1S,7S,8S)-8-fluoro-5-oxa-2-azabicyclo[5.1.0]octan-2-yl)-2-(((2R,7aS)-2-fluorotetrahydro-1H-pyrrolizin-7a(5H)-yl)methoxy-d2)pyrido[4,3-d]pyrimidin-7-yl)naphthalen-8-d-2-amine] is lower in IC50: 50 to 500 nM for the first, under 50 nM for the second.

First: [2H]C([2H])([2H])Oc1c(F)c(F)c(F)c2cc(N)cc(-c3ncc4c(N5CCOC[C@H]6[C@H](F)[C@H]65)nc(OC[C@@]56CC(=C)CN5CCC65CC5)nc4c3F)c12 [Example 121, 6,7,8-trifluoro-4-(8-fluoro-4-((1S,7S,8S)-8-fluoro-5-oxa-2-azabicyclo[5.1.0]octan-2-yl)-2-(((S)-6′-methylenetetrahydrospiro[cyclopropane-1,1′-pyrrolizin]-7a′(5′H)-yl)methoxy)pyrido[4,3-d]pyrimidin-7-yl)-5-(methoxy-d3)naphthalen-2-amine]
Second: C#Cc1c(F)ccc2cc(N)cc(-c3ncc4c(N5CCOC[C@@H]6[C@@H](Cl)[C@@H]65)nc(OC[C@]56CC(=C)CN5CCC65CC5)nc4c3C)c12 [Example 347, 4-(4-((1R,7R,8R)-8-chloro-5-oxa-2-azabicyclo[5.1.0]octan-2-yl)-8-methyl-2-(((R)-6′-methylenetetrahydrospiro[cyclopropane-1,1′-pyrrolizin]-7a′(5′H)-yl)methoxy)pyrido[4,3-d]pyrimidin-7-yl)-5-ethynyl-6-fluoronaphthalen-2-amine]
The IC50 of the first is lower: under 50 nM for the first, 500 to 10000 nM for the second.

First: Nc1cc(Cl)c(C(F)(F)F)c(-c2ncc3c(N4CCCC[C@H]5[C@H](F)[C@H]54)nc(OC[C@@]45CCCN4C/C(=C/F)C5)nc3c2F)c1 [Example 371, 3-chloro-5-(8-fluoro-4-((1S,7R,8S)-8-fluoro-2-azabicyclo[5.1.0]octan-2-yl)-2-(((S,E)-2-(fluoromethylene)tetrahydro-1H-pyrrolizin-7a(5H)-yl)methoxy)pyrido[4,3-d]pyrimidin-7-yl)-4-(trifluoromethyl)aniline]
Second: Cc1c(F)c(N)cc(-c2ncc3c(N4CCCC[C@H]5[C@H](F)[C@H]54)nc(OC[C@@]45CCCN4C/C(=C/F)C5)nc3c2F)c1C(F)(F)F [Example 396, 2-fluoro-5-(8-fluoro-4-((1S,7R,8S)-8-fluoro-2-azabicyclo[5.1.0]octan-2-yl)-2-(((S,E)-2-(fluoromethylene)tetrahydro-1H-pyrrolizin-7a(5H)-yl)methoxy)pyrido[4,3-d]pyrimidin-7-yl)-3-methyl-4-(trifluoromethyl)aniline]
The IC50 of the first is lower: under 50 nM for the first, 500 to 10000 nM for the second.

`[2H]C([2H])(Oc1nc(N2CCOC[C@H]3[C@H](F)[C@H]32)c2cc(Cl)c(-c3nc(N)cc(C)c3C(F)(F)F)c(F)c2n1)[C@@]12CCCN1C[C@H](F)C2` [Example 159, 6-(6-Chloro-8-fluoro-4-((1S,7S,8S)-8-fluoro-5-oxa-2-azabicyclo[5.1.0]octan-2-yl)-2-(((2R,7aS)-2-fluorotetrahydro-1H-pyrrolizin-7a(5H)-yl)methoxy-d2)quinazolin-7-yl)-4-methyl-5-(trifluoromethyl)pyridin-2-amine] and `[2H]C([2H])(Oc1nc(N2CCOC[C@@H]3[C@H]2[C@@]3([2H])F)c2cnc(-c3cccc4ccc(F)c(C#C)c34)c(F)c2n1)[C@@]12CCCN1C[C@H](F)C2` [Example 118, (1S,7S,8S)-2-(7-(8-ethynyl-7-fluoronaphthalen-1-yl)-8-fluoro-2-(((2R,7aS)-2-fluorotetrahydro-1H-pyrrolizin-7a(5H)-yl)methoxy-d2)pyrido[4,3-d]pyrimidin-4-yl)-8-fluoro-5-oxa-2-azabicyclo[5.1.0]octane-8-d] cannot be ordered by IC50: under 50 nM for the first, under 50 nM for the second.

`C#Cc1c(Cl)ccc2cc(N)cc(-c3ncc4c(N5CCOC[C@H]6[C@H](F)[C@H]65)nc(OC[C@@H]5CCCN5C)nc4c3F)c12` [Example 296, 6-chloro-5-ethynyl-4-(8-fluoro-4-((1S,7S,8S)-8-fluoro-5-oxa-2-azabicyclo[5.1.0]octan-2-yl)-2-(((S)-1-methylpyrrolidin-2-yl)methoxy)pyrido[4,3-d]pyrimidin-7-yl)naphthalen-2-amine] and `C#Cc1c(F)ccc2cc(N)cc(-c3ncc4c(N5CCCC[C@H]6[C@H](F)[C@H]65)nc(OC[C@]56C/C(=C/F)CN5CCC65CC5)nc4c3F)c12` [Example 404, 5-Ethynyl-6-fluoro-4-(8-fluoro-4-((1S,7R,8S)-8-fluoro-2-azabicyclo[5.1.0]octan-2-yl)-2-(((R,Z)-6′-(fluoromethylene)tetrahydrospiro[cyclopropane-1,1′-pyrrolizin]-7a′(5′H)-yl)methoxy)pyrido[4,3-d]pyrimidin-7-yl)naphthalen-2-amine] cannot be ordered by IC50: under 50 nM for the first, under 50 nM for the second.

Same assay, conditions: Homo sapiens, NCI-H441, cellular pERK HTRF, NCI-H441 (KRAS G12V) cells

First: [2H]C([2H])(Oc1nc(N2CCCC[C@@H]3[C@@H](Cl)[C@@H]32)c2cnc(-c3cc(N)cc4ccc(F)c(C#C)c34)c(C)c2n1)[C@@]12CCCN1C[C@H](F)C2 [Example 465, 4-(4-((1R,7S,8R)-8-chloro-2-azabicyclo[5.1.0]octan-2-yl)-2-(((2R,7aS)-2-fluorotetrahydro-1H-pyrrolizin-7a(5H)-yl)methoxy-d2)-8-methylpyrido[4,3-d]pyrimidin-7-yl)-5-ethynyl-6-fluoronaphthalen-2-amine]
Second: [2H]C([2H])(Oc1nc(N2CCOC[C@H]3[C@H](F)[C@H]32)c2cnc(-c3cc(O)cc4ccc(F)c(C#C)c34)c(F)c2n1)[C@@]12CCCN1[C@H](C)[C@H](F)C2 [Example 472, 5-ethynyl-6-fluoro-4-(8-fluoro-2-(((2R,3R,7aS)-2-fluoro-3-methyltetrahydro-1H-pyrrolizin-7a(5H)-yl)methoxy-d2)-4-((1S,7S,8S)-8-fluoro-5-oxa-2-azabicyclo[5.1.0]octan-2-yl)pyrido[4,3-d]pyrimidin-7-yl)naphthalen-2-ol]
The IC50 of the first is higher: 500 to 10000 nM for the first, under 50 nM for the second.

`C#Cc1c(F)ccc2cc(N)cc(-c3ncc4c(N5CCOC[C@H]6[C@H](F)[C@H]65)nc(OC[C@]56CC(=C(F)F)CN5CCC65CC5)nc4c3C)c12` [Example 437, 4-(2-(((R)-6′-(difluoromethylene)tetrahydrospiro [cyclopropane-1,1′-pyrrolizin]-7a′(5′H)-yl)methoxy)-4-((1S,7S,8S)-8-fluoro-5-oxa-2-azabicyclo[5.1.0]octan-2-yl)-8-methylpyrido[4,3-d]pyrimidin-7-yl)-5-ethynyl-6-fluoronaphthalen-2-amine] gave an IC50 of under 50 nM.

Same assay, conditions: Homo sapiens, NCI-H441, pERK HTRF, NCI-H441 cells (KRAS G12V)

`[2H]C([2H])(Oc1nc(N2CCOC[C@@H]3[C@H](F)[C@@H]32)c2cnc(-c3cc(N)cc4cc(F)c(F)c(C#C)c34)c(F)c2n1)[C@@]12CCCN1C[C@H](F)C2` [Example 29, 5-Ethynyl-6,7-difluoro-4-(8-fluoro-4-((1R,7R,8S)-8-fluoro-5-oxa-2-azabicyclo[5.1.0]octan-2-yl)-2-(((2R,7aS)-2-fluorotetrahydro-1H-pyrrolizin-7a(5H)-yl)methoxy-d2)pyrido[4,3-d]pyrimidin-7-yl)naphthalen-2-amine] was tested, and the IC50 was 50 to 500 nM.
